From patent US9840495B2, “Oxindole derivatives carrying a piperidyl-substituted azetidinyl substituent and use thereof for treating vasopressine-related diseases” (AbbVie Deutschland GmbH & Co. KG, priority 2013, dated 2017)

What was measured:
[1] = molecular target: T1, human vasopressin V1b receptor (Homo sapiens, UniProt P47901); assay: biochemical
T1 sequence (P47901 1-424): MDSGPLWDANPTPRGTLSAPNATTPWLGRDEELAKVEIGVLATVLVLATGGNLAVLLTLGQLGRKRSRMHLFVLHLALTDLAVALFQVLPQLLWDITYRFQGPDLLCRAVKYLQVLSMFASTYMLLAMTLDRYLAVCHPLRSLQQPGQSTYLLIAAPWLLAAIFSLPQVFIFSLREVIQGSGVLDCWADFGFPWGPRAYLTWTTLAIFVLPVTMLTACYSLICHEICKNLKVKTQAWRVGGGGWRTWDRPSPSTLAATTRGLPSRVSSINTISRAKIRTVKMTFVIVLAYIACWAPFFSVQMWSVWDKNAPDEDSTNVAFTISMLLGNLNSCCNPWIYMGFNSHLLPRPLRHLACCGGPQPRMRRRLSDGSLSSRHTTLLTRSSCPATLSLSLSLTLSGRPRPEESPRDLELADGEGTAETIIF

[2] = molecular target: human vasopressin V1a receptor (Homo sapiens, UniProt P37288); assay: Vasopressin V1a receptor binding assay (125I-AVP displacement, CHO-K1 membranes); details: selectivity quotient, human V1a vs human V1b receptor binding
Sequence of human vasopressin V1a receptor (P37288 whole entry): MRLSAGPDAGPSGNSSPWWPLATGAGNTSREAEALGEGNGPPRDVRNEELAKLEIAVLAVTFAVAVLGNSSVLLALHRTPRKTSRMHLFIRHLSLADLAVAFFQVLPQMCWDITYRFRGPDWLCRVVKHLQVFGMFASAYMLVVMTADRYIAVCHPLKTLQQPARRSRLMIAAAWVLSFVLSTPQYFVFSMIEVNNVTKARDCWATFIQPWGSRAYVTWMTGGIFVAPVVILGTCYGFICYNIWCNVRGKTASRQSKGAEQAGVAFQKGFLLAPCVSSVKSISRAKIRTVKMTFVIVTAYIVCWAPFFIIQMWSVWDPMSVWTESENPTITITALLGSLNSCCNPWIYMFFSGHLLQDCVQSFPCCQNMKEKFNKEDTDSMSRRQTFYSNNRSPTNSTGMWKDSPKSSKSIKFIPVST

Row | Compound | Ki [1] | Ki(h-V1a)/Ki(h-V1b) [2]
1 | CCOc1ncccc1[C@]1(NC(=O)N2CC(N3CCC(N4CCC5(CC4)COC5)CC3)C2)C(=O)N(S(=O)(=O)c2ccc(OC)cc2OC)c2ccc(C#N)cc21 [Example 6, (S)-3-(4-(2-Oxa-7-Azaspiro[3.5]nonan-7-yl)piperidin-1-yl)-N-(5-cyano-1-((2,4-dimethoxyphenyl)sulfonyl)-3-(2-ethoxypyridin-3-yl)-2-oxoindolin-3-yl)azetidine-1-carboxamide] | 1 to 10 nM | +++ (>75)
2 | CCOc1ncccc1[C@]1(NC(=O)N2CC(N3CCC(N4CCOCC4)CC3)C2)C(=O)N(S(=O)(=O)c2ccc(OC)cc2OC)c2cc(F)c(F)cc21 [Example 8, (S)—N-(1-((2,4-Dimethoxyphenyl)sulfonyl)-3-(2-ethoxypyridin-3-yl)-5,6-difluoro-2-oxoindolin-3-yl)-3-(4-morpholinopiperidin-1-yl)azetidine-1-carboxamide] | < 1 nM | ++ (25-75)
3 | CCOc1ncccc1[C@]1(NC(=O)N2CC(N3CCC(N4CCOCC4)CC3)C2)C(=O)N(S(=O)(=O)c2ccc(OC)cc2OC)c2cc(F)c(C#N)cc21 [Example 9, (S)—N-(5-Cyano-1-((2,4-dimethoxyphenyl)sulfonyl)-3-(2-ethoxypyridin-3-yl)-6-fluoro-2-oxoindolin-3-yl)-3-(4-morpholinopiperidin-1-yl)azetidine-1-carboxamide] | < 1 nM | ++ (25-75)
4 | CCOc1ncccc1[C@]1(NC(=O)N2CC(N3CCC(N(C)C4COC4)CC3)C2)C(=O)N(S(=O)(=O)c2ccc(OC)cc2OC)c2cc(F)c(C#N)cc21 [Example 10, (S)—N-(5-Cyano-1-((2,4-dimethoxyphenyl)sulfonyl)-3-(2-ethoxypyridin-3-yl)-6-fluoro-2-oxoindolin-3-yl)-3-(4-(methyl(oxetan-3-yl)amino)piperidin-1-yl)azetidine-1-carboxamide] | < 1 nM | +++ (>75)
5 | CCOc1ncccc1[C@]1(NC(=O)N2CC(N3CCC(N(C)C4COC4)CC3)C2)C(=O)N(S(=O)(=O)c2ccc(OC)cc2OC)c2cc(F)c(F)cc21 [Example 11, N-[(3S)-1-[(2,4-Dimethoxyphenyl)sulfonyl]-3-(2-ethoxypyridin-3-yl)-5,6-difluoro-2-oxo-2,3-dihydro-1H-indol-3-yl]-3-{4-[methyl(oxetan-3-yl)amino]piperidin-1-yl}azetidine-1-carboxamide] | 1 to 10 nM | ++ (25-75)
6 | CCOc1ncccc1[C@]1(NC(=O)N2CC(N3CCC(N4CCOCC4)CC3)C2)C(=O)N(S(=O)(=O)c2ccc(OC)cc2OC)c2ccc(Cl)cc21 [Example 13, (S)—N-(5-Chloro-1-((2,4-dimethoxyphenyl)sulfonyl)-3-(2-ethoxypyridin-3-yl)-2-oxoindolin-3-yl)-3-(4-morpholinopiperidin-1-yl)azetidine-1-carboxamide] | < 1 nM | –
7 | CCOc1ncccc1[C@]1(NC(=O)N2CC(N3CCC(N4CCCO4)CC3)C2)C(=O)N(S(=O)(=O)c2ccc(OC)cc2OC)c2ccc(C#N)cc21 [Example 17, (S)—N-(5-Cyano-1-((2,4-dimethoxyphenyl)sulfonyl)-3-(2-ethoxypyridin-3-yl)-2-oxoindolin-3-yl)-3-(4-(isoxazolidin-2-yl)piperidin-1-yl)azetidine-1-carboxamide] | 10 to 100 nM | +++ (>75)
8 | CCOc1ncccc1[C@]1(NC(=O)N2CC(N3CCC(N4CC(C5COC5)C4)CC3)C2)C(=O)N(S(=O)(=O)c2ccc(OC)cc2OC)c2ccc(C#N)cc21 [Example 18, (S)—N-(5-Cyano-1-((2,4-dimethoxyphenyl)sulfonyl)-3-(2-ethoxypyridin-3-yl)-2-oxoindolin-3-yl)-3-(4-(3-(oxetan-3-yl)azetidin-1-yl)piperidin-1-yl)azetidine-1-carboxamide] | < 1 nM | +++ (>75)
9 | CCOc1ncccc1[C@]1(NC(=O)N2CC(N3CCC(N4CC5(COC5)C4)CC3)C2)C(=O)N(S(=O)(=O)c2ccc(OC)cc2OC)c2ccc(C#N)cc21 [Example 19, (S)-3-(4-(2-Oxa-6-azaspiro[3.3]heptan-6-yl)piperidin-1-yl)-N-(5-cyano-1-((2,4-dimethoxyphenyl)sulfonyl)-3-(2-ethoxypyridin-3-yl)-2-oxoindolin-3-yl)azetidine-1-carboxamide] | < 1 nM | +++ (>75)
10 | CCOc1ncccc1[C@]1(NC(=O)N2CC(N3CCC(N4CCOCC4)CC3)C2)C(=O)N(S(=O)(=O)c2ccc(F)cc2F)c2ccc(C#N)cc21 [Example 26, (S)—N-(5-Cyano-1-((2,4-difluorophenyl)sulfonyl)-3-(2-ethoxypyridin-3-yl)-2-oxoindolin-3-yl)-3-(4-morpholinopiperidin-1-yl)azetidine-1-carboxamide] | 1 to 10 nM | –

Results, then the compound that gave them:

Row | Ki [1] | Ki(h-V1a)/Ki(h-V1b) [2] | Compound
11 | < 1 nM | +++ (>75) | CCOc1ncccc1[C@]1(NC(=O)N2CC(N3CCC(N4CCOCC4)CC3)C2)C(=O)N(S(=O)(=O)c2ccc(OC)cc2OC)c2ccc(C#N)cc21 [Example 1, (S)—N-(5-cyano-1-((2,4-dimethoxyphenyl)sulfonyl)-3-(2-ethoxypyridin-3-yl)-2-oxoindolin-3-yl)-3-(4-morpholinopiperidin-1-yl)azetidine-1-carboxamide]
12 | < 1 nM | +++ (>75) | CCOc1ncccc1[C@]1(NC(=O)N2CC(N3CCC(N(C)C4COC4)CC3)C2)C(=O)N(S(=O)(=O)c2ccc(OC)cc2OC)c2ccc(C#N)cc21 [Example 2, (S)—N-(5-cyano-1-((2,4-dimethoxyphenyl)sulfonyl)-3-(2-ethoxypyridin-3-yl)-2-oxoindolin-3-yl)-3-(4-(methyl(oxetan-3-yl)amino)piperidin-1-yl)azetidine-1-carboxamide]
13 | < 1 nM | +++ (>75) | COc1ccc(S(=O)(=O)N2C(=O)[C@@](NC(=O)N3CC(N4CCC(N5CCOCC5)CC4)C3)(c3cccnc3OC)c3cc(C#N)ccc32)c(OC)c1 [Example 3, (S)—N-(5-Cyano-1-((2,4-dimethoxyphenyl)sulfonyl)-3-(2-methoxypyridin-3-yl)-2-oxoindolin-3-yl)-3-(4-morpholinopiperidin-1-yl)azetidine-1-carboxamide]
14 | 1 to 10 nM | +++ (>75) | COc1ccc(S(=O)(=O)N2C(=O)[C@@](NC(=O)N3CC(N4CCC(N(C)C5COC5)CC4)C3)(c3cccnc3OC)c3cc(C#N)ccc32)c(OC)c1 [Example 4, (S)—N-(5-Cyano-1-((2,4-dimethoxyphenyl)sulfonyl)-3-(2-methoxypyridin-3-yl)-2-oxoindolin-3-yl)-3-(4-(methyl(oxetan-3-yl)amino)piperidin-1-yl)azetidine-1-carboxamide]
15 | 1 to 10 nM | +++ (>75) | CCOc1ncccc1[C@]1(NC(=O)N2CC(N3CCC(N(CC)C4COC4)CC3)C2)C(=O)N(S(=O)(=O)c2ccc(OC)cc2OC)c2ccc(C#N)cc21 [Example 5, (S)—N-(5-Cyano-1-((2,4-dimethoxyphenyl)sulfonyl)-3-(2-ethoxypyridin-3-yl)-2-oxoindolin-3-yl)-3-(4-(ethyl(oxetan-3-yl)amino)piperidin-1-yl)azetidine-1-carboxamide]
16 | < 1 nM | – | CCOc1ncccc1[C@]1(NC(=O)N2CC(N3CCC(N(C)C4COC4)CC3)C2)C(=O)N(S(=O)(=O)c2ccc(OC)cc2OC)c2ccc(Cl)cc21 [Example 14, (S)—N-(5-Chloro-1-((2,4-dimethoxyphenyl)sulfonyl)-3-(2-ethoxypyridin-3-yl)-2-oxoindolin-3-yl)-3-(4-(methyl(oxetan-3-yl)amino)piperidin-1-yl)azetidine-1-carboxamide]
17 | 1 to 10 nM | +++ (>75) | CCOc1ncccc1[C@]1(NC(=O)N2CC(N3CCC(N(C)CCOC)CC3)C2)C(=O)N(S(=O)(=O)c2ccc(OC)cc2OC)c2ccc(C#N)cc21 [Example 15, (S)—N-(5-Cyano-1-((2,4-dimethoxyphenyl)sulfonyl)-3-(2-ethoxypyridin-3-yl)-2-oxoindolin-3-yl)-3-(4-((2-methoxyethyl)(methyl)amino)piperidin-1-yl)azetidine-1-carboxamide]
18 | 1 to 10 nM | + (10-<25) | COc1ccc(S(=O)(=O)N2C(=O)[C@@](NC(=O)N3CC(N4CCC(NC5COC5)CC4)C3)(c3cccnc3OC)c3cc(C#N)ccc32)c(OC)c1 [Example 20, (S)—N-(5-Cyano-1-((2,4-dimethoxyphenyl)sulfonyl)-3-(2-methoxypyridin-3-yl)-2-oxoindolin-3-yl)-3-(4-(oxetan-3-ylamino)piperidin-1-yl)azetidine-1-carboxamide]
19 | < 1 nM | + (10-<25) | COc1ccc(S(=O)(=O)N2C(=O)[C@@](NC(=O)N3CC(N4CCC(N(C)C5CCOCC5)CC4)C3)(c3cccnc3OC)c3cc(C#N)ccc32)c(OC)c1 [Example 21, (S)—N-(5-Cyano-1-((2,4-dimethoxyphenyl)sulfonyl)-3-(2-methoxypyridin-3-yl)-2-oxoindolin-3-yl)-3-(4-(methyl(tetrahydro-2H-pyran-4-yl)amino)piperidin-1-yl)azetidine-1-carboxamide]
20 | 1 to 10 nM | ++ (25-75) | CCN(C1CCN(C2CN(C(=O)N[C@@]3(c4cccnc4OC)C(=O)N(S(=O)(=O)c4ccc(OC)cc4OC)c4ccc(C#N)cc43)C2)CC1)C1COC1 [Example 23, (S)—N-(5-Cyano-1-((2,4-dimethoxyphenyl)sulfonyl)-3-(2-methoxypyridin-3-yl)-2-oxoindolin-3-yl)-3-(4-(ethyl(oxetan-3-yl)amino)piperidin-1-yl)azetidine-1-carboxamide]
